Experimental data reported in the supplement of paper PMC4862054.
“And” between values parts separate entries of the source, which are not always exact repeats. Equal values may be shown once.

What was measured:
[1] = system: BT-474; settings: 72 h
Outline: (§1)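 Two sequential readouts followed a 72 h incubation of breast cancer cell lines with compound at 5 concentrations in 10-fold steps over a compound-specific 10,000-fold range: CellTox Green fluorescence (485/520 nm) for cell death, then CellTiter-Glo luminescence, after 10 min at room temperature, for viability. Each plate was normalised to 0.1 % DMSO and a positive kill control. Dose-response curves were fitted for EC50, censored at the top concentration.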

[2] = system: CAL-120; settings: 72 h
Outline: as §1

[3] = system: CAL-148; settings: 72 h
Outline: as §1

[4] = system: CAL-51; settings: 72 h
Outline: as §1

[5] = system: DU-4475; settings: 72 h
Outline: as §1

[6] = system: HCC1599; settings: 72 h
Outline: as §1

[7] = system: HDQ-P1; settings: 72 h
Outline: as §1

[8] = system: Hs578T; settings: 72 h
Outline: as §1

[9] = system: MCF-10A; settings: 72 h
Outline: as §1

[10] = system: MDA-MB-231; settings: 72 h
Outline: as §1

[11] = system: MDA-MB-436; settings: 72 h
Outline: as §1

[12] = system: MDA-MB-453; settings: 72 h
Outline: as §1

[13] = system: MFM-223; settings: 72 h
Outline: as §1

[14] = system: SK-BR-3; settings: 72 h
Outline: as §1

[15] = system: CAL-51; settings: 72 h; remark: listed apart in the source
Outline: (§2)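 The reported EC50 was fitted from percent-inhibition dose-response curves and censored at the highest concentration. Breast cancer cell lines (20 µl suspension) were added to 384-well plates containing compound in 5 µl medium and incubated 72 h, and viability was read with 2.5 µl CellTiter-Blue over 2 h at 37 °C at 560/590 nm. Each plate was normalised to vehicle and a positive kill control and checked by Z'-factor, and rows with zero drug sensitivity score were dropped.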

[16] = system: DU-4475; settings: 72 h; remark: listed apart in the source
Outline: as §2

[17] = system: MDA-MB-453; settings: 72 h; remark: listed apart in the source
Outline: as §2

[18] = system: CAL-85-1; settings: 72 h
Outline: as §1

[19] = system: HCC1143; settings: 72 h
Outline: as §1

[20] = system: CAL-51; settings: 72 h; remark: listed apart in the source
Description: (§3)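 Drug sensitivity and resistance testing (DSRT) of breast cancer cell lines in 384-well plates, 5 concentrations in 10-fold dilutions over a compound-specific 10,000-fold range. After 72 h, cytotoxicity was read by CellTox Green fluorescence and viability by CellTiter-Glo luminescence (multiplexed), normalised to DMSO and benzethonium chloride controls. EC50 is the inflection point of the fitted dose-response curve (bottom asymptote free, so it can be relative for partial curves) and is censored at the highest tested concentration. Rows with DSS 0 (no meaningful response) were excluded.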

[21] = system: MDA-MB-231; settings: 72 h; remark: listed apart in the source
Description: as §3

[22] = system: CAL-148; assay: normalised viability (% of control), CellTiter-Blue; higher = more viable cells (about 100 = DMSO control); settings: incubation time: 72 h
Description: (§4)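 DSRT, CellTiter-Blue viability, 72 h incubation. Signal is normalised to DMSO and benzethonium chloride controls. Value is the normalised response at dose 9.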

[23] = system: CAL-51; assay: as above; settings: incubation time: 72 h
Description: as §4

[24] = system: CAL-85-1; assay: as above; settings: incubation time: 72 h
Description: as §4

[25] = system: DU-4475; assay: as above; settings: incubation time: 72 h
Description: as §4

[26] = system: HDQ-P1; assay: as above; settings: incubation time: 72 h
Description: as §4

[27] = system: MDA-MB-453; assay: as above; settings: incubation time: 72 h
Description: as §4

[28] = system: MDA-MB-436; assay: normalised response (% of control), CellTiter-Glo; higher = more viable cells (100 = DMSO, 0 = benzethonium chloride kill control); settings: incubation time: 72 h
Outline: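 Each value is the plate-normalised signal at one concentration of the series. Breast cancer cell lines (20 µl suspension) were incubated 72 h in 384-well plates with compound at 5 concentrations in 10-fold steps over a compound-specific 10,000-fold range. CellTox Green and then CellTiter-Glo were read, and each plate was scaled to 0.1 % DMSO (100) and a positive kill control (0).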

CNC(=O)c1cc(Oc2ccc(NC(=O)Nc3ccc(Cl)c(C(F)(F)F)c3)c(F)c2)ccn1 [Regorafenib]
EC50, CellTiter-Glo [1]: 3.5 µM | EC50, CellTiter-Glo [2]: 9.95 µM | EC50, CellTiter-Glo [3]: 4.59 µM | EC50, CellTiter-Glo [4]: 0.216 µM | EC50, CellTiter-Glo [5]: 2.97 µM | EC50, CellTiter-Glo [6]: 8.02 µM | EC50, CellTiter-Glo [7]: 5.11 µM | EC50, CellTiter-Glo [8]: 2.29 µM | EC50, CellTiter-Glo [9]: 1.88 µM | EC50, CellTiter-Glo [10]: 4.56 µM | EC50, CellTiter-Glo [11]: 6.38 µM | EC50, CellTiter-Glo [12]: 2.89 µM | EC50, CellTiter-Glo [13]: 1.15 µM | EC50, CellTiter-Glo [14]: > 10 µM | EC50, CellTiter-Blue viability [15]: 2.74 µM | EC50, CellTiter-Blue viability [16]: 3 µM | EC50, CellTiter-Blue viability [17]: 2.74 µM

Cc1cc(Nc2cc(CN3CCOCC3)c3nc(C)c(Cc4ccc(Cl)cc4F)n3n2)n[nH]1 [Gandotinib]
EC50, CellTiter-Glo [1]: 1.11 µM | EC50, CellTiter-Glo [2]: 5.01 µM | EC50, CellTiter-Glo [4]: 0.775 µM | EC50, CellTiter-Glo [18]: 0.955 µM | EC50, CellTiter-Glo [5]: 7.86 µM | EC50, CellTiter-Glo [19]: 1.62 µM | EC50, CellTiter-Glo [7]: 1.93 µM | EC50, CellTiter-Glo [8]: 2.66 µM | EC50, CellTiter-Glo [9]: 3.14 µM | EC50, CellTiter-Glo [10]: 1.3 µM | EC50, CellTiter-Glo [11]: 1.51 µM | EC50, CellTiter-Glo [13]: 0.42 µM | EC50, CellTiter-Glo [14]: 4.03 µM | EC50, CellTox Green [20]: 1.39 µM

Nc1cc(C(F)(F)F)c(-c2cc(N3CCOCC3)nc(N3CCOCC3)n2)cn1 [Buparlisib]
EC50, CellTiter-Glo [1]: 5.15 µM | EC50, CellTiter-Glo [2]: 8.23 µM | EC50, CellTiter-Glo [4]: 2.4 µM | EC50, CellTiter-Glo [19]: > 10 µM | EC50, CellTiter-Glo [7]: 1 µM | EC50, CellTiter-Glo [8]: 2.33 µM | EC50, CellTiter-Glo [9]: 0.513 µM | EC50, CellTiter-Glo [10]: 9.28 µM | EC50, CellTiter-Glo [13]: 0.225 µM | EC50, CellTox Green [20]: 2.9 µM | EC50, CellTox Green [21]: 3.58 µM

O=C(Nc1cccnc1)N1CCC(Cc2cccc(Oc3ccc(C(F)(F)F)cn3)c2)CC1 [PF-3845]
EC50, CellTiter-Glo [2]: > 10 µM | EC50, CellTiter-Glo [4]: 4.2 µM | EC50, CellTiter-Glo [18]: > 10 µM | EC50, CellTiter-Glo [6]: 9.42 µM | EC50, CellTiter-Blue viability [15]: 5.96 µM | EC50, CellTiter-Blue viability [17]: 2.64 µM

N#Cc1ccc(COC[C@H]2O[C@@H](n3c(NCc4ccc(Cl)c(Cl)c4)nc4c(N)ncnc43)[C@H](O)[C@@H]2O)cc1
EC50, CellTiter-Glo [1]: 0.857 µM | EC50, CellTiter-Glo [5]: 1.17 µM | EC50, CellTiter-Glo [19]: 2.64 µM | EC50, CellTiter-Glo [7]: 3.55 µM | EC50, CellTiter-Glo [8]: 1.74 µM | EC50, CellTiter-Glo [9]: 2.65 µM | EC50, CellTiter-Glo [13]: 4.53 µM | EC50, CellTiter-Glo [14]: 2.58 µM | EC50, CellTiter-Blue viability [16]: 2.32 µM

COc1cc2c(NC3CCN(C(C)C)CC3)nc(N3CCC(F)(F)CC3)nc2cc1OCCCN1CCCC1 [UNC0642]
EC50, CellTiter-Glo [1]: 7.62 µM | EC50, CellTiter-Glo [3]: 5.46 µM | EC50, CellTiter-Glo [18]: 2.99 µM | EC50, CellTiter-Glo [7]: 9.83 µM | EC50, CellTiter-Glo [9]: 6.61 µM | EC50, CellTiter-Glo [10]: 4.72 µM | EC50, CellTiter-Glo [11]: 4.1 µM | EC50, CellTiter-Glo [12]: 3.15 µM | EC50, CellTiter-Glo [13]: 5.79 µM | EC50, CellTiter-Glo [14]: 6.17 µM | EC50, CellTox Green [21]: 2.09 µM

CNC(=O)c1cccc(-c2ccc3c(N4CCOC[C@@H]4C)nc(N4CCOC[C@@H]4C)nc3n2)c1 [AZD2014]
EC50, CellTiter-Glo [1]: 0.286 µM | EC50, CellTiter-Glo [2]: 0.224 µM | EC50, CellTiter-Glo [3]: 0.395 µM | EC50, CellTiter-Glo [4]: 0.131 µM | EC50, CellTiter-Glo [18]: 0.29 µM | EC50, CellTiter-Glo [5]: 1.4 µM | EC50, CellTiter-Glo [19]: 0.366 µM | EC50, CellTiter-Glo [6]: 3.62 µM | EC50, CellTiter-Glo [7]: 0.12 µM | EC50, CellTiter-Glo [8]: 0.459 µM | EC50, CellTiter-Glo [9]: 0.493 µM | EC50, CellTiter-Glo [10]: 0.316 µM | EC50, CellTiter-Glo [11]: 0.121 µM | EC50, CellTiter-Glo [12]: 0.195 µM | EC50, CellTiter-Glo [13]: 0.123 µM | EC50, CellTiter-Glo [14]: 0.116 µM

CNC(=O)c1ccc(N2C(=S)N(c3ccc(C#N)c(C(F)(F)F)c3)C(=O)C23CCC3)cc1F [RD162]
EC50, CellTiter-Glo [1]: > 10 µM

C=C1C[C@@H]2[C@H](CC[C@]3(C)C(=O)CC[C@@H]23)[C@@]2(C)C=CC(=O)C=C12 [Exemestane]
EC50, CellTiter-Blue viability [17]: 0.916 µM

CNC(=O)c1ccc(N2C(=S)N(c3ccc(C#N)c(C(F)(F)F)c3)C(=O)C2(C)C)cc1F [Enzalutamide]
EC50, CellTiter-Glo [4]: 0.0486 µM | EC50, CellTiter-Glo [12]: > 10 µM

CC(C)C[C@@H](C(=O)N[C@H](C(=O)OC1CCCC1)c1ccccc1)[C@H](O)C(=O)NO [Tosedostat] (10000 nM)
normalised viability [22]: 23.2% | normalised viability [23]: 33.6% | normalised viability [24]: 49.5% | normalised viability [25]: 35.2% | normalised viability [26]: 76.5% | normalised viability [27]: 18.8% | normalised response [28]: 64.5%

Cc1[nH]c2ccccc2c1CCNCc1ccc(/C=C/C(=O)NO)cc1 [Panobinostat] (1000 nM)
normalised viability [22]: 0.37% | normalised viability [23]: 1.29% | normalised viability [24]: 4.25% | normalised viability [25]: 4.66% | normalised viability [26]: 15% | normalised viability [27]: 1.09% | normalised response [28]: 30.2%

NC(=O)c1ccc(I)c([N+](=O)[O-])c1 [Iniparib]
EC50, CellTiter-Glo [11]: 0.54 µM

COc1cc2ncnc(Nc3ccc(F)c(Cl)c3)c2cc1OCCCN1CCOCC1 [Gefitinib] (10000 nM)
normalised viability [22]: 69.2% and 65% | normalised viability [23]: 82.1% and 81.6% | normalised viability [24]: 45% and 40.7% | normalised viability [25]: 102% and 105% | normalised viability [26]: 59.6% and 51.1% | normalised viability [27]: 29.8% and 23% | normalised response [28]: 74.1%

C=C1C[C@@H]2[C@H](CC[C@]3(C)C(=O)CC[C@@H]23)[C@@]2(C)C=CC(=O)C=C12 [Exemestane] (10000 nM)
normalised viability [22]: 104% | normalised viability [23]: 105% | normalised viability [24]: 99.1% | normalised viability [25]: 88.9% | normalised viability [26]: 103% | normalised viability [27]: 81% | normalised response [28]: 88%

CCn1c(-c2nonc2N)nc2cnc(Oc3cccc(NC(=O)c4ccc(OCCN5CCOCC5)cc4)c3)cc21
EC50, CellTiter-Glo [1]: 0.206 µM | EC50, CellTiter-Glo [2]: 0.512 µM | EC50, CellTiter-Glo [3]: 1.24 µM | EC50, CellTiter-Glo [4]: 4.64 µM | EC50, CellTiter-Glo [5]: > 10 µM | EC50, CellTiter-Glo [7]: 2.17 µM | EC50, CellTiter-Glo [8]: 2.05 µM | EC50, CellTiter-Glo [9]: 0.0378 µM | EC50, CellTiter-Glo [10]: 1.5 µM | EC50, CellTiter-Glo [11]: 3.67 µM | EC50, CellTiter-Glo [14]: 1.88 µM | EC50, CellTox Green [20]: 0.0481 µM | EC50, CellTox Green [21]: 2.95 µM

COCC[n+]1c2c(n(Cc3cnccn3)c1C)C(=O)c1ccccc1C2=O [YM155] (10000 nM)
normalised viability [22]: 2.13% | normalised viability [23]: 1.83% | normalised viability [24]: 2.71% | normalised viability [25]: 0.83% | normalised viability [26]: 0.66% | normalised viability [27]: 2% | normalised response [28]: -0.62%

CN(C)CCOc1ccc(/C(=C(/CCCl)c2ccccc2)c2ccccc2)cc1 [Toremifene]
EC50, CellTiter-Glo [1]: 3.62 µM | EC50, CellTiter-Glo [9]: 1.71 µM | EC50, CellTiter-Glo [13]: 7.34 µM | EC50, CellTiter-Blue viability [17]: 7.24 µM
